pIC50: −log10 of the molar value. Like-named read-outs stand apart in the source and are kept apart here.
Target: T1, hmGluR1 receptor (Homo sapiens, UniProt Q13255)
T1 construct: expressed in transfected cells
Assay: IC50 determination: intracellular calcium mobilization (FLIPR) upon Quisqualate stimulation in CHO cells stably expressing hmGluR1
Assay type: cell-based
Conditions: against Quisqualate 1 μM (EC80)
Method in brief: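 CHO cells stably expressing hmGluR1 were kept overnight in DMEM high glucose with GPT and 1 mM pyruvate, then loaded 2 h with Calcium 3 dye.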

[1] = class symbols, read-out: mGIuR 1 IC50
[2] = FLIPR calcium mobilization, read-out: IC50 Class
[3] = FLIPR calcium mobilization, read-out: mGluR1 IC50

T1 sequence (Q13255 19-1194): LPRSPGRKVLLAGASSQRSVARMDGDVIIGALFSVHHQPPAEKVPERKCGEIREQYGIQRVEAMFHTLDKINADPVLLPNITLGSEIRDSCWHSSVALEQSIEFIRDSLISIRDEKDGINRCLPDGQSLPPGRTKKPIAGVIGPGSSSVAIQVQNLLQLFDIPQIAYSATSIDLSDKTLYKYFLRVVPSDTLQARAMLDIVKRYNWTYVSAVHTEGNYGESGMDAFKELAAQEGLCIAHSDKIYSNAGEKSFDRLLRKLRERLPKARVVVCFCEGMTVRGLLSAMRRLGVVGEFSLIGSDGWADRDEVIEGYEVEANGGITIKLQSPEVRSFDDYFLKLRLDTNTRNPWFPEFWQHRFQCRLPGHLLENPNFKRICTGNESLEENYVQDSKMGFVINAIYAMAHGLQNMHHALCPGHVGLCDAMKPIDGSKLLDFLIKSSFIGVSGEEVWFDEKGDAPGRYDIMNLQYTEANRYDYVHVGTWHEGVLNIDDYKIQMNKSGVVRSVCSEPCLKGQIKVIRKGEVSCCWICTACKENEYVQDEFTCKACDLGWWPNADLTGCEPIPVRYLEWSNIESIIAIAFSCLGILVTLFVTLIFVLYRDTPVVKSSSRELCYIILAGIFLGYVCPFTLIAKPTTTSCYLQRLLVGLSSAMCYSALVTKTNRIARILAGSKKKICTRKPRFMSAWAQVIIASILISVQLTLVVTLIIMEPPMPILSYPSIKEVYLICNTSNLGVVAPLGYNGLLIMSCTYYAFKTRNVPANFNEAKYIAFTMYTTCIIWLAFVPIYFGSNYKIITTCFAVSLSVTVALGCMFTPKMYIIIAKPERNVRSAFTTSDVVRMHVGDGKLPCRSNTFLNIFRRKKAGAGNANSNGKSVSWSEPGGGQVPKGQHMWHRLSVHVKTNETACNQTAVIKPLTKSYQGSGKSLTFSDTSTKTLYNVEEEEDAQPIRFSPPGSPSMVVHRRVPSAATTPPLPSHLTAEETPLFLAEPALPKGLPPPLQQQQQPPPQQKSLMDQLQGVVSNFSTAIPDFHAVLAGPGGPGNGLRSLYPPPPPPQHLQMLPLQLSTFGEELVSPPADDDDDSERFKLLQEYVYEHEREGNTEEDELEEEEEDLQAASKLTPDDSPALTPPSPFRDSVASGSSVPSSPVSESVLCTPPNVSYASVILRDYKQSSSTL

Q: With `CCCN(C)c1ccnc2sc3c(=O)n(-c4ccc(OC)cc4)cnc3c12` [28AO] as the compound, how does the pIC50 [1] read?
A: The pIC50 was > 7.30.

Q: How did the pIC50 [2] turn out when `O=c1c2sc3nccc(N4CCCC4)c3c2ncn1-c1ccc(F)cc1` [28GW] was run?
A: The pIC50 was 6.00 to 6.82.

Q: How did the pIC50 [2] turn out when `COc1ccc(-n2cnc3c(sc4ncnc(Nc5ccccc5)c43)c2=O)cc1F` [95GA] was run?
A: Its pIC50 is < 6.00.

Q: `CSCCNc1ncnc2sc3c(=O)n(-c4ccc(Cl)cc4)cnc3c12` [95FS] was tested. Which pIC50 [2] did it give?
A: The pIC50 was > 7.30.

Q: How did the pIC50 [2] turn out when `CC(=O)c1ccnc2sc3c(=O)n(-c4ccc(Cl)cc4)cnc3c12` [compound 184] was run?
A: The pIC50 was 6.82 to 7.30.

Q: How did the pIC50 [1] turn out when `CN(C)c1c(Br)cnc2sc3c(=O)n(C4CCCCC4)cnc3c12` [compound 43] was run?
A: Its pIC50 is 6.00 to 6.82.

Q: `Cc1ccc(-n2cnc3c(sc4nccc(NC(C)(C)CO)c43)c2=O)cc1` [28EX] was tested. Which pIC50 [2] did it give?
A: Its pIC50 is 6.82 to 7.30.

Q: `CCc1ccc(-n2cnc3c(sc4nccc(NC)c43)c2=O)cc1` [7CC] was tested. Which pIC50 [1] did it give?
A: Its pIC50 is > 7.30.

Q: With `Cc1ccc(-n2cnc3c(sc4nccc(N(C)C)c43)c2=O)cc1Cl` [7DG] as the compound, how does the pIC50 [1] read?
A: Its pIC50 is > 7.30.

Q: How did the pIC50 [1] turn out when `O=c1c2sc3nccc(OS(=O)(=O)C(F)(F)F)c3c2ncn1C1CCCCC1` [27A] was run?
A: Its pIC50 is < 6.00.

Q: With `COc1ccnc2sc3c(=O)n(-c4ccncc4)cnc3c12` [161C] as the compound, how does the pIC50 [2] read?
A: Its pIC50 is < 6.00.

Q: `COc1ccc(-n2cnc3c(sc4nccc(OC)c43)c2=O)cc1` [25B] was tested. Which pIC50 [1] did it give?
A: The pIC50 was 6.00 to 6.82.

Q: What does the source list for `CN(C)c1ccnc2sc3c(=O)n(C4CCCCC4)cnc3c12` [7Q]?
A: pIC50 [3]: 9.46; pIC50 [1]: > 7.30

Q: With `CN(C)c1ccnc2sc3c(=O)n(-c4nc5ccccc5s4)cnc3c12` [7BQ] as the compound, how does the pIC50 [1] read?
A: Its pIC50 is 6.00 to 6.82.

Q: With `CN(C)c1ccnc2sc3c(=O)n(-c4ccccc4Cl)cnc3c12` [7F] as the compound, how does the pIC50 [1] read?
A: The pIC50 was 6.82 to 7.30.

Q: `CN(CCO)c1ccnc2sc3c(=O)n(-c4ccc5c(c4)CCO5)cnc3c12` [28CL] was tested. Which pIC50 [2] did it give?
A: The pIC50 was > 7.30.

Q: With `C=CCNc1ncnc2sc3c(=O)n(-c4ccc5scnc5c4)cnc3c12` [95BM] as the compound, how does the pIC50 [2] read?
A: The pIC50 was > 7.30.

Q: With `C=C(C)CNc1ncnc2sc3c(=O)n(-c4ccc(Cl)cc4)cnc3c12` [95EZ] as the compound, how does the pIC50 [2] read?
A: Its pIC50 is > 7.30.

Q: With `CN(C)c1ccnc2sc3c(=O)n(Cc4ccc(Cl)cc4)cnc3c12` [7I] as the compound, how does the pIC50 [1] read?
A: The pIC50 was < 6.00.

Q: How did the pIC50 [2] turn out when `COCCNc1ccnc2sc3c(=O)n(-c4ccc(Br)cc4)cnc3c12` [28GO] was run?
A: Its pIC50 is > 7.30.

Q: How did the pIC50 [2] turn out when `Cc1ccc(-n2cnc3c(sc4cnnc(Cl)c43)c2=O)cc1` [compound 166] was run?
A: The pIC50 was < 6.00.

Q: `COc1ccc(-n2cnc3c(sc4nccc(N(C)C)c43)c2=O)cc1Cl` [7T] was tested. Which pIC50 [1] did it give?
A: Its pIC50 is 6.82 to 7.30.

Q: With `COc1cccc(-n2cnc3c(sc4nccc(N(C)C)c43)c2=O)c1` [7AA] as the compound, how does the pIC50 [1] read?
A: The pIC50 was > 7.30.

Q: `COc1ccc(-n2cnc3c(sc4nc(Cl)cc(N)c43)c2=O)cc1` [59I] was tested. Which pIC50 [2] did it give?
A: The pIC50 was 6.82 to 7.30.

Q: With `COc1ccc(-n2cnc3c(sc4nccnc43)c2=O)cc1` [compound 40] as the compound, how does the pIC50 [1] read?
A: The pIC50 was < 6.00.

Q: How did the pIC50 [3] turn out when `Cc1ccc(-n2cnc3c(sc4nccc(NCC#N)c43)c2=O)cc1` [28AA] was run?
A: The pIC50 was 8.74.

Q: What about the pIC50 [1] of the same compound?
A: The pIC50 was > 7.30.

Q: `Cc1ccc(-n2cnc3c(sc4cnnc(NC5CC5)c43)c2=O)cc1` [167A] was tested. Which pIC50 [2] did it give?
A: The pIC50 was 6.00 to 6.82.

Q: With `O=c1c2sc3nccc(N4CCC4)c3c2ncn1-c1ccc(Cl)cc1` [28GJ] as the compound, how does the pIC50 [2] read?
A: Its pIC50 is 6.82 to 7.30.

Q: `CNc1ncnc2sc3c(=O)n(-c4ccc(Cl)cc4)cnc3c12` [95DB] was tested. Which pIC50 [2] did it give?
A: Its pIC50 is > 7.30.

Q: With `C=CCc1ccnc2sc3c(=O)n(-c4ccc(Cl)cc4)cnc3c12` [178A] as the compound, how does the pIC50 [2] read?
A: Its pIC50 is 6.82 to 7.30.

Q: With `CN(C)c1ccnc2sc3c(=O)n(-c4ccc(C(N)=O)cc4)cnc3c12` [7AZ] as the compound, how does the pIC50 [1] read?
A: The pIC50 was < 6.00.

Q: With `CN(C)c1ccnc2sc3c(=O)n(-c4cccc(O)c4)cnc3c12` [7AV] as the compound, how does the pIC50 [1] read?
A: Its pIC50 is > 7.30.

Q: `CN1CCN(c2ccnc3sc4c(=O)n(C5CCCCC5)cnc4c23)CC1` [61A] was tested. Which pIC50 [1] did it give?
A: The pIC50 was < 6.00.

Q: How did the pIC50 [1] turn out when `Cc1ccc(-n2cnc3c(sc4nccc(NC[C@@H](C)O)c43)c2=O)cc1` [29A] was run?
A: Its pIC50 is 6.00 to 6.82.

Q: `O=c1c2sc3nccc(NCCO)c3c2ncn1-c1ccc(Cl)cc1` [28GB] was tested. Which pIC50 [2] did it give?
A: The pIC50 was > 7.30.

Q: How did the pIC50 [1] turn out when `CN(C)c1ccnc2sc3c(=O)n(-c4ccc(CO)cc4)cnc3c12` [7AY] was run?
A: Its pIC50 is > 7.30.

Q: With `O=c1c2sc3nccc(N4CCC[C@@H]4CO)c3c2ncn1-c1ccc(Cl)cc1` [28GI] as the compound, how does the pIC50 [2] read?
A: The pIC50 was < 6.00.

Q: `COc1ccc(-n2cnc3c(sc4nccc(N(C)N)c43)c2=O)cc1` [28DO] was tested. Which pIC50 [2] did it give?
A: Its pIC50 is > 7.30.

Q: How did the pIC50 [2] turn out when `C=CCNc1ccnc2sc3c(=O)n(-c4ccc(F)cc4)cnc3c12` [28EC] was run?
A: The pIC50 was > 7.30.

Q: How did the pIC50 [1] turn out when `COc1ccc(-n2cnc3c(sc4cncc(N(C)C)c43)c2=O)cc1` [37F] was run?
A: Its pIC50 is 6.82 to 7.30.

Source: patent publication US7989464B2, “mGluR1 antagonists as therapeutic agents” (Schering Corporation, priority 2004, dated 2011)
